Patent US12628822B2, “Plant pathogen defence elicitors” (UNIVERSITÉ LIBRE DE BRUXELLES, priority 2020, dated 2026)

Experiments:
camalexin = assay: Camalexin quantification by LC-MS; type: in vivo, Arabidopsis thaliana; settings: 100 μM, 24 h, 14-day-old Col-0 plants
Procedure: For each treatment, camalexin was extracted from a pool of 14-day-old Arabidopsis. Briefly, 100 mg of ground-frozen samples were soaked using 80% (v:v) methanol in 1:1 (m/v) ratio. After homogenization, the supernatant was recovered through centrifugation at 17,000×g for 5 min and evaporated at 50° C. in nitrogen gas atmosphere. The residues were finally resuspended in high-performance LC-grade methanol and filtrated with 0.22-μm filters. Each pool was then analysed three times by LC-MS, using a reverse-phase LUNA® Omega 5 μm Polar C18 column (250×4.6 mm). The mobile phases were composed of 0.1% […] (solvent A) and acetonitrile (solvent B). The applied gradient was as follows: 0-2 min, 10% B; 2-13 min, 10-98% B; 13-23 min, 98% B; 23-25 min, 98-10% B; 25-30 min, […]; post-run 1 min.

Botrytis cinerea = assay: Protection of tomato plants against Botrytis cinerea (lesion areas); type: in vivo; settings: 100 μM; 4 weeks old tomato plants; compared with 100 μM AA9_COS
Procedure: All experiments were carried on 4 weeks old tomato plants infected with 10^6 spores per millilitres of Botrytis cinerea.
Protection of tomatoes plant against pathogen Botrytis cinerea using several combinations of native cellodextrines, and C1-oxidised, C4-oxidised, and optionally C1- and C4-oxidised (double oxidised) cellodextrines was tested (FIG. 14). In particular, the numerals in FIG. 14 represent mixtures with the following molar proportions of the respective cellodextrins components: • native:C1-oxidised:C4-oxidised • (1) 4:5:1; (2) 6.5:3:0.5; (3) 3:6.5:0.5; (4) 4:3:3; (5) 4:1:5; (6) 0.5:9:0.5; • native:C1-oxidised:C4-oxidised:doubly oxidised • (7) 0.5:4:0.5:5; (8) 2.5:2.5:2.5:2.5.
All experiments were carried on 4 weeks old tomato plants infected with 10^6 spores of Botrytis cinerea. All mixtures were applied having the same molar mass concentration of 100 μM.

For `OC[C@H]1O[C@@H](O[C@H]2[C@H](O)[C@@H](O)[C@H](O)O[C@@H]2CO)[C@H](O)[C@@H](O)[C@@H]1O` [Cellobiose, β-D-glucopyranosyl(1→4)D-glucopyranose], the camalexin level (camalexin) was 3.7 ± 1.8 ng/g and the “protection of tomato plants (size of lesion areas)” value (Botrytis cinerea) was “less protective effect”.
